Where “and” joins values, the source holds several entries; their conditions need not be identical. Equal values may be shown once. Calls of active or inactive are those of the source.
Legend:
[1] = Luminescence Cell-Based Dose Confirmation HTS to Identify Inhibitors of Platelet Dense Granule Release. [Related pubchem assays: 1663 (Primary HTS), 1678 (Summary of Project)]; format: functional
[2] = target: Luciferin 4-monooxygenase (Photinus pyralis, UniProt P08659); experiment: firefly luciferase enzyme inhibitors, dose response, biochemical, luminescence (AID 1891)
Chain of Luciferin 4-monooxygenase (P08659 whole entry): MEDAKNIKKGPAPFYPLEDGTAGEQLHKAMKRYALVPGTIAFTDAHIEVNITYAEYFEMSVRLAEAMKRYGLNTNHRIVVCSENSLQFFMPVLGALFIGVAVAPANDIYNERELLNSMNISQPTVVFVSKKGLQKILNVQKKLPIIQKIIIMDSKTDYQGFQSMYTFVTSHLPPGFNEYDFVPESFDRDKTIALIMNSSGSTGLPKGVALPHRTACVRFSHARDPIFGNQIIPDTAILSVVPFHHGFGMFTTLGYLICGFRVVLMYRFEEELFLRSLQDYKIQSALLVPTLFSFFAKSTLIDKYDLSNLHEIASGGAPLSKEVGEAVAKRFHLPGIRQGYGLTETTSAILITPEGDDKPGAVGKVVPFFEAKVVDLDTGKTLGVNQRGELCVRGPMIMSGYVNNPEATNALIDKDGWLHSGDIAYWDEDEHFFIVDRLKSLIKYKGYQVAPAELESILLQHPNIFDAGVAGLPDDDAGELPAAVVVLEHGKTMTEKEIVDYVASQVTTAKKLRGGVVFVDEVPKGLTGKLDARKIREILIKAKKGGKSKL

[3] = target: FAD-linked sulfhydryl oxidase ALR (Homo sapiens, UniProt P55789); experiment: inhibitors of human ALR sulfhydryl oxidase, dose response, biochemical, H2O2 detection, luminescence, cherry-pick (AID 493248)
Chain of FAD-linked sulfhydryl oxidase ALR (P55789 whole entry): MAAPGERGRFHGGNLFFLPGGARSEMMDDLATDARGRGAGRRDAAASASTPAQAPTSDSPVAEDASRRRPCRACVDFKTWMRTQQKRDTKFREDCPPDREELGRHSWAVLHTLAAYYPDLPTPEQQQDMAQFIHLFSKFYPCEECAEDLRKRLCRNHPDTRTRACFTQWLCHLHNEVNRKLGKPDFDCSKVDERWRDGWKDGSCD

[4] = target: Cytochrome P450 2C19 (Homo sapiens, UniProt P33261); experiment: Cytochrome panel assay with activity outcomes. Panel member name: p450-cyp2c19 Compounds with AC50 equal or less than 10 uM are considered active; format: functional
Chain of Cytochrome P450 2C19 (P33261 whole entry): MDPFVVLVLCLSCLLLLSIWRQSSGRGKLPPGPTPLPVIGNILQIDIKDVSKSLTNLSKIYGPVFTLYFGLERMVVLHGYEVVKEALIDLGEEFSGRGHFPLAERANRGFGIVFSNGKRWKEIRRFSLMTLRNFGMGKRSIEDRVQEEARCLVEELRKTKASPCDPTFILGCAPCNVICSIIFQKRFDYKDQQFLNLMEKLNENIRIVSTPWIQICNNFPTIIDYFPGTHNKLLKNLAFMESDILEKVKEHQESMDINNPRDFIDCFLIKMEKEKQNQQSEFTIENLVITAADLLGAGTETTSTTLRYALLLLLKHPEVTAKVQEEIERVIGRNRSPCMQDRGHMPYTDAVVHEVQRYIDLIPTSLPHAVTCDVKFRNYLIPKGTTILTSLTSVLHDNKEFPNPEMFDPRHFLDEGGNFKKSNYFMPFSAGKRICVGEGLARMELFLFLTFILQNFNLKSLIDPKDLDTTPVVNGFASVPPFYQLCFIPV

[5] = target: T1, Cytochrome P450 1A2 (Homo sapiens, UniProt P05177);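 note: PubChem cytochrome P450 panel assay, CYP1A2 panel member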
T1 sequence (P05177 whole entry): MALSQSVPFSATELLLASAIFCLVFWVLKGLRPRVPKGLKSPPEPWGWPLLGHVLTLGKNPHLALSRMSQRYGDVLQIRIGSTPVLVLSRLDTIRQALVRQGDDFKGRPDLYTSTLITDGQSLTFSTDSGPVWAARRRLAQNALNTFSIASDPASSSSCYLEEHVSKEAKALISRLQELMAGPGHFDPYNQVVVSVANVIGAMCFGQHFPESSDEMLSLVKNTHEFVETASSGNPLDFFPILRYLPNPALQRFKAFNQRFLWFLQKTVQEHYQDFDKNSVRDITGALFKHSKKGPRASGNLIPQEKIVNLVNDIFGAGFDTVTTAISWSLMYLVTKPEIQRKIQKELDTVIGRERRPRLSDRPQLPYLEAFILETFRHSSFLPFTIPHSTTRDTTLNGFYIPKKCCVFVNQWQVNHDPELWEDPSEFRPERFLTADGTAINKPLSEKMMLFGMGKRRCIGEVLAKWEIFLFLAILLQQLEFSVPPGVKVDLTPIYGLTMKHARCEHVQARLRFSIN

[6] = target: Cytochrome P450 2C9 (Homo sapiens, UniProt P11712)
Chain of Cytochrome P450 2C9 (P11712 whole entry): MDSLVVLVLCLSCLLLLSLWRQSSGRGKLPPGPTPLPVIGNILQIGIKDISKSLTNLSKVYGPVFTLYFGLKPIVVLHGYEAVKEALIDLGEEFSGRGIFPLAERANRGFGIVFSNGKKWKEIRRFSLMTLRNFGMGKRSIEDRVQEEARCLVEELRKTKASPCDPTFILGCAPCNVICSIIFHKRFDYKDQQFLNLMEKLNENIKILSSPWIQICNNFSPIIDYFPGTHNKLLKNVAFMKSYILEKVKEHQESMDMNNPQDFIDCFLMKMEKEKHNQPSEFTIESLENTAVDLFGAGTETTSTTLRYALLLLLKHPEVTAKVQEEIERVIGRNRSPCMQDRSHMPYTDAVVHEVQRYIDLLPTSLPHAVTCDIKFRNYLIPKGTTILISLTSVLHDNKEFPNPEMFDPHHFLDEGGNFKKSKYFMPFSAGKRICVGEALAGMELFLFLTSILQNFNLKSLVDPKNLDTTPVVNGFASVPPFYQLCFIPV

[7] = target: Cytochrome P450 2D6 (Homo sapiens, UniProt P10635);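 note: CYP2D6 member of a cytochrome P450 panel assay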
Chain of Cytochrome P450 2D6 (P10635 whole entry): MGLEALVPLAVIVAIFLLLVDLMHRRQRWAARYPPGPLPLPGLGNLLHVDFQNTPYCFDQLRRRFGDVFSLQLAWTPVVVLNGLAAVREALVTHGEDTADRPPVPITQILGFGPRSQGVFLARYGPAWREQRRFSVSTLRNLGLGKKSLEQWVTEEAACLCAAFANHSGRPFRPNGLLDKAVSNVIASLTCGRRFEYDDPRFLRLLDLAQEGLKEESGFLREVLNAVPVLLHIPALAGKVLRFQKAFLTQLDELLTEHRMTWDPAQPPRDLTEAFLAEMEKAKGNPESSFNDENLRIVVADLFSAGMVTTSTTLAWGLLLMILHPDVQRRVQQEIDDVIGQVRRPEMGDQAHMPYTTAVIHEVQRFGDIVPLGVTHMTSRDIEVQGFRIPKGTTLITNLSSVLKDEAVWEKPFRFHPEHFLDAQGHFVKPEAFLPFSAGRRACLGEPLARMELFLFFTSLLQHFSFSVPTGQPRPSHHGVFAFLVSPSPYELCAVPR

[8] = target: Cytochrome P450 3A4 (Homo sapiens, UniProt P08684);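 note: CYP3A4 tested as one member of a cytochrome P450 panel screen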
Chain of Cytochrome P450 3A4 (P08684 whole entry): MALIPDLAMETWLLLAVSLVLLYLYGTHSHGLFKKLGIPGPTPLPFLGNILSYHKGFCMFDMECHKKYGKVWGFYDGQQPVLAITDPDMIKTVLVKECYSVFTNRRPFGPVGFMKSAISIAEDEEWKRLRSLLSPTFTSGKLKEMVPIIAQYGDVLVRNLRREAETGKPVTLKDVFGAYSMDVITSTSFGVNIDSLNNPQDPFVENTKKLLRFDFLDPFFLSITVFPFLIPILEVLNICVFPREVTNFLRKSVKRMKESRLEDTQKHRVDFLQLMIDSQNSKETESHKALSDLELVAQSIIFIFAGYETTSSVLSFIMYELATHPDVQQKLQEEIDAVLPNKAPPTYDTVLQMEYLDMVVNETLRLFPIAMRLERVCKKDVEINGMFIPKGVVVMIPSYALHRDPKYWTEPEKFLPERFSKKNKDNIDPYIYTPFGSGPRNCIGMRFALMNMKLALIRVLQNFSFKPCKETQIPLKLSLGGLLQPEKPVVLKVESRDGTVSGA

[9] = Luminescence Cell-Based Dose Confirmation HTS to Identify Activators of 5'UTR Stem-Loop Driven Alpha-Synuclein mRNA Translation in H4 Neuroglioblastoma Cells. [Related pubchem assays: 1829 (Project Summary), 1814 (Primary HTS)]; format: functional
[10] = Luminescence Cell-Based Dose Response HTS to Identify Activators of Luciferase Translation or Activity in H4 […] Cells. [Related pubchem assays: 1829 (Project Summary), 1814 (Primary HTS)]; format: functional
[11] = test system: H4; experiment: Luminescence Cell-Based Dose Response HTS to Identify Activators of 5'UTR Stem-Loop Driven Prion Protein mRNA Translation in H4 Neuroglioblastoma Cells. [Related pubchem assays: 1829 (Project Summary), 1814 (Primary HTS)]; format: functional; conditions: Homo sapiens
[12] = target: T2, Rac GTPase-activating protein 1 (Homo sapiens, UniProt Q9H0H5); experiment: MgcRacGAP GTPase-activating activity inhibitors, confirmation, biochemical, ADP Hunter fluorescence, primary and confirmatory (AID 624330); format: functional
T2 sequence (Q9H0H5 whole entry): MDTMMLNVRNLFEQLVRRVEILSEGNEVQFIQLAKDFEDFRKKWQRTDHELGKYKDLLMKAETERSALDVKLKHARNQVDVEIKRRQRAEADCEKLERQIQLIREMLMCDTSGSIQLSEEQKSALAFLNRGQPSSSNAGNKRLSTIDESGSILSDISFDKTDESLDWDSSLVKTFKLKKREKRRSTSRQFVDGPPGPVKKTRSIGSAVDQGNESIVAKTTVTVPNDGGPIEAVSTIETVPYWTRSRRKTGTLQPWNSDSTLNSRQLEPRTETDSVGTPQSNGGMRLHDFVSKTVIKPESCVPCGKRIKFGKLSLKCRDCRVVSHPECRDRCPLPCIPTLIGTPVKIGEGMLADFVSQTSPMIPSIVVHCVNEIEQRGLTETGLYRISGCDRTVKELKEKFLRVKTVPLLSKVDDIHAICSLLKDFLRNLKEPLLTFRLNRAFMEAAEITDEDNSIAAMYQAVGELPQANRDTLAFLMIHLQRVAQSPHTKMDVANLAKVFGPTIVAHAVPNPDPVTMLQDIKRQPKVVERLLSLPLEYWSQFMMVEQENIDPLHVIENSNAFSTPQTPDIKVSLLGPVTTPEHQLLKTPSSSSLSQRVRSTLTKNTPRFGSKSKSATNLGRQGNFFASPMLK

Structure (SMILES): Cn1c(=O)c2c(nc(OCc3ccc(Cl)cc3Cl)n2Cc2ccc(F)cc2)n(C)c1=O
- EC50 [1]: > 112 µM (not active)
- EC50 [2]: > 112 µM (not active)

Structure (SMILES): Cn1c(-c2ccc3c(c2)OCO3)cnc1NCc1cccc(O)c1
- AC50 [3]: 2.49 µM (active)

Structure (SMILES): Cc1ccc(C)c(NC(=O)c2cc(S(=O)(=O)N3CCOCC3)cn2C)c1
- EC50 [1]: > 112 µM (not active)
- EC50 [2]: > 112 µM (not active)

Structure (SMILES): O=C(CN1C(=O)NC2(CCCC2)C1=O)Nc1cc(Cl)ccc1N1CCCC1
- AC50 [3]: 0.244 µM (active)

Structure (SMILES): N/C(CSS(=O)(=O)O)=N\[C@@H]1C[C@H]2CC[C@@H]1C2
- AC50 [4]: inconclusive
- AC50 [5]: 10 µM (inconclusive)
- AC50 [6]: 7.94 µM (inconclusive)
- AC50 [7]: 7.94 µM (inconclusive)

Structure (SMILES): CCN(CC)CCNC(=O)C(C)c1nn(C)c(=O)c2ccccc12 (stereo not drawn)
- AC50 [7]: 20 µM (inconclusive)

Structure (SMILES): CCCn1c(S)nnc1C(C)NC(=O)c1ccccc1 (stereo not drawn)
- AC50 [3]: 3 µM (active)

Structure (SMILES): COc1ccc(-c2[nH]nc(C)c2-c2ccccc2OC)c(O)c1
- AC50 [3]: < 0.005 µM (active)

Structure (SMILES): COc1ccccc1CNc1nc(-c2cccnc2)nc2ccccc12
- AC50 [8]: 1.26 µM (inconclusive)
- AC50 [7]: 25.1 µM (inconclusive)

Structure (SMILES): CC(C)=NNc1nc(-c2ccc(N3C(=O)CCC3=O)cc2)cs1
- AC50 [3]: 0.119 µM (active)

Structure (SMILES): Cc1cccc(NC(=O)c2cnc3sccn3c2=O)n1
- EC50 [9]: 0.125 µM (active)
- EC50 [10]: 32.9 µM (active)
- EC50 [11]: 63.9 µM (active)

Structure (SMILES): O=C(N/N=C\c1cccc(O)c1)c1ccncc1
- AC50 [7]: 3.16 µM (inconclusive)

Structure (SMILES): CC1CCC(NC(=O)c2ccc(CS(=O)(=O)Cc3ccccc3F)o2)CC1 (stereo not drawn)
- EC50 [1]: > 112 µM (not active)
- EC50 [2]: > 112 µM (not active)
- AC50 [8]: 14.1 µM (inconclusive)
- AC50 [5]: 0.251 µM (inconclusive)
- AC50 [6]: 17.8 µM (inconclusive)
- AC50 [7]: 35.5 µM (inconclusive)

Structure (SMILES): CSc1nc(/C=C2\C=Nc3ccccc32)c(O)n1C
- EC50 [1]: 0.812 µM (active)
- EC50 [2]: 5.32 µM (active)
- AC50 [3]: 4.03 µM (active)
- IC50 [12]: 41 µM (active)

Structure (SMILES): COc1ccc(C(=O)N2CCN=C2SCc2cccnc2)c(OC)c1
- AC50 [3]: 0.067 µM (active)

Structure (SMILES): O=C(COC(=O)c1ccc2[nH]c3c(c2c1)CCCC3)Nc1ccccc1
- EC50 [9]: 5.12 µM (active)
- EC50 [10]: 41.9 µM (active)
- EC50 [11]: > 120 µM (not active)

Structure (SMILES): COC(=O)C1=C2SC(C)C(=O)N2C(N)=C(C#N)C1c1ccc(OC)c(OC)c1 (stereo not drawn)
- EC50 [1]: > 112 µM (not active)
- EC50 [2]: > 112 µM (not active)

Structure (SMILES): O=C1CC(NCCC2=CCCCC2)C(=O)N1c1cccc(Cl)c1Cl (stereo not drawn)
- AC50 [8]: 15.8 µM (inconclusive)
- AC50 [5]: 15.8 µM (inconclusive)
- AC50 [7]: 15.8 µM (inconclusive)

Structure (SMILES): Oc1c(/C=N/c2ccc(Cl)cn2)sc2ccccc12
- EC50 [9]: 15.4 µM (active)
- EC50 [10]: 12.3 µM (active)
- EC50 [11]: 15.5 µM (active)

Structure (SMILES): CCN(CC)CCNC(=O)c1cc(Cl)c(N)cc1OC [METOCLOPRAMIDE]
- AC50 [5]: 15.8 µM (inconclusive)
- AC50 [7]: 6.31 µM (inconclusive) and 15.8 µM (inconclusive)

Structure (SMILES): CC(C(=O)Nc1ccccc1C(F)(F)F)N1CCN(C)CC1 (stereo not drawn)
- IC50 [12]: 163 µM (active)

Structure (SMILES): N#C/C(=C\c1c[nH]c2ccccc12)c1nnc2n1CCCCC2
- EC50 [1]: > 112 µM (not active)
- EC50 [2]: > 112 µM (not active)

Structure (SMILES): O=C(CN1CCN(c2ccccc2O)CC1)NCCCc1ccccc1
- AC50 [3]: 0.301 µM (active)

Reference: ChEMBL document CHEMBL1201862, “PubChem BioAssay data set” (2004)
